According to PubChem BioAssay (NCI):
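These data come from cells grown in 96-well plates and exposed to compound for 48 hours at five concentrations. TGI marks complete inhibition of growth.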

Key:
Test in all cases: NCI anticancer screen, dose series, 48 h
[1] = tested on: A549 NSCLC
[2] = tested on: ACHN renal
[3] = tested on: CAKI-1 renal
[4] = tested on: CCRF-CEM leukemia
[5] = tested on: COLO 205 colon
[6] = tested on: DU-145 prostate
[7] = tested on: EKVX NSCLC
[8] = tested on: HCC-2998 colon
[9] = tested on: HCT-116 colon
[10] = tested on: HCT-15 colon
[11] = tested on: HL-60(TB) leukemia
[12] = tested on: HOP-62 NSCLC
[13] = tested on: HT29 colon
[14] = tested on: IGROV1 ovarian
[15] = tested on: K-562 leukemia
[16] = tested on: LOX IMVI melanoma
[17] = tested on: M14 melanoma
[18] = tested on: MALME-3M melanoma
[19] = tested on: MCF7 breast
[20] = tested on: MDA-MB-231 breast
[21] = tested on: MDA-MB-435
[22] = tested on: MDA-N
[23] = tested on: MOLT-4 leukemia
[24] = tested on: NCI-H460 lung
[25] = tested on: NCI-H522 lung
[26] = tested on: NCI/ADR-RES ovarian
[27] = tested on: OVCAR-3 ovarian
[28] = tested on: OVCAR-5 ovarian
[29] = tested on: OVCAR-8 ovarian
[30] = tested on: PC-3 prostate
[31] = tested on: RPMI-8226 leukemia
[32] = tested on: SF-268 CNS
[33] = tested on: SF-295 CNS
[34] = tested on: SK-MEL-28 melanoma
[35] = tested on: SK-MEL-5 melanoma
[36] = tested on: SK-OV-3 ovarian
[37] = tested on: SNB-19 CNS
[38] = tested on: SR leukemia
[39] = tested on: SW-620 colon
[40] = tested on: T-47D breast
[41] = tested on: TK-10 renal
[42] = tested on: U251 CNS
[43] = tested on: UACC-257 melanoma
[44] = tested on: UACC-62 melanoma
[45] = tested on: UO-31 renal

Measured: TGI

CCC(C(=O)c1ccc(OC)c(OC)c1)N(C(=O)C(F)(F)F)C(C)c1ccccc1 (stereo not given)
> 100 µM: all assays above
